Measured values from patent US11993599B2, “Therapeutic compounds” (Genentech, Inc., priority 2021, dated 2024).

Experiments:
Format in all cases: cell-based
[1] = molecular target: T1, BRM (Homo sapiens, UniProt P51531); assay: HiBIT nanoluciferase complementation screen for BRM degraders; conditions: 18 hours, BRM-HiBIT KI Hela cells, luminescence normalized: DMSO only = 0%, no cells = −100%; for Median HiBiT activity 1 μM: compound 1 μM; for Median HiBiT activity 10 μM: compound 10 μM
Description: Example B-1: HiBIT Nanoluciferase Complementation Screen for BRM Degraders
To assess BRM degradation, compounds were screened for their effect of BRM levels using the HiBIT nanoluciferase complementation strategy developed at Promega. In brief, a HELA cell line that was genetically modified via CRISPR/CAS9 was used to fuse the HiBIT sequence at the 3′ end of BRM (BRM-HiBIT KI Hela). BRM protein levels were then detected using the Nano-Glo HiBIT lytic detection reagent (Promega).
The screened compounds were plated into a white 384-well plate at 10 μM and 1 μM in 25 nL DMSO using an Echo dispenser (Labcyte). BRM-HiBIT KI Hela cells were seeded in the compound plate at 5000 cell per well at 25 μl in DMEM growth media (containing 10% FBS, 1% Glutamax (GIBCO cat #31053-028), lx Penicillin-Streptomycin (ROCHE, cat #1107444001), 4.5 g/L D-Glucose, and no phenol red). After incubation with compounds for 18 hours at 37° C., cell viability was assessed by the addition of 5 μl Cell Titer-Fluor reagent (Promega). After 30 s of mixing on an orbital shaker, and 30 minutes incubation at 37° C., fluorescence was measured with an INFINITE F500 (Tecan) (380-400 nm excitation, 505 nm emission). Next, to assess BRM HiBIT levels, 30 μl of Nano-Glo HiBIT lytic detection reagent (Promega) containing 1:50 Nano-Glo HiBIT lytic substrate and 1:100 LgBIT protein per ml of lytic buffer was added. After shaking on an orbital shaker at 350 rpm for 10 minutes, luminescence was measured on the INFINITE F500 (Tecan). To assess compound effects, luminescence signal was normalized with the mean of wells treated with DMSO only set to 0% and the mean of wells containing no cells set to −100%. Note that, in Table 4, the “Compound Number” corresponds to that used in Table 1.

[2] = molecular target: T2, BRG1 (Homo sapiens, UniProt P51532); assay: Immunofluorescence assay for BRG1 degradation in SW1573 cells; conditions: 20 hours incubation; for DC50: immunofluorescence mean nuclear signal, read-out: BRG1 IF Degradation IC50; for Dmax: SW1573, 20 h, normalized to a known degrader control, read-out: BRG1 IF Degradation Sinf (%)
T2 construct: either BRM primary antibody (Cell signaling Cat #11966) or BRG primary antibody (Abcam, ab 110641); endogenous in cells; host or cells: SW1573
Outline: (§1)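 Read-out is per-cell mean nuclear BRM or BRG1 immunofluorescence, imaged after 20 h compound exposure of SW1573 cells and normalized to a known degrader control. Concentration-response curves, fit with a floating maximum, yield degradation IC50 and Dmax.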

[3] = molecular target: T1, BRM; assay: Immunofluorescence assay for BRM degradation in SW1573 cells; parameters: treated overnight at 4° C. with either BRM primary antibody (Cell signaling Cat #11966) or BRG primary antibody; endogenous in cells; host or cells: SW1573; conditions: 20 hours incubation; for DC50: immunofluorescence mean nuclear signal, read-out: BRM IF Degradation IC50; for BRM IF Degradation Sinf (%): normalized to a known degrader control
Outline: as §1

T2 sequence (P51532 whole entry): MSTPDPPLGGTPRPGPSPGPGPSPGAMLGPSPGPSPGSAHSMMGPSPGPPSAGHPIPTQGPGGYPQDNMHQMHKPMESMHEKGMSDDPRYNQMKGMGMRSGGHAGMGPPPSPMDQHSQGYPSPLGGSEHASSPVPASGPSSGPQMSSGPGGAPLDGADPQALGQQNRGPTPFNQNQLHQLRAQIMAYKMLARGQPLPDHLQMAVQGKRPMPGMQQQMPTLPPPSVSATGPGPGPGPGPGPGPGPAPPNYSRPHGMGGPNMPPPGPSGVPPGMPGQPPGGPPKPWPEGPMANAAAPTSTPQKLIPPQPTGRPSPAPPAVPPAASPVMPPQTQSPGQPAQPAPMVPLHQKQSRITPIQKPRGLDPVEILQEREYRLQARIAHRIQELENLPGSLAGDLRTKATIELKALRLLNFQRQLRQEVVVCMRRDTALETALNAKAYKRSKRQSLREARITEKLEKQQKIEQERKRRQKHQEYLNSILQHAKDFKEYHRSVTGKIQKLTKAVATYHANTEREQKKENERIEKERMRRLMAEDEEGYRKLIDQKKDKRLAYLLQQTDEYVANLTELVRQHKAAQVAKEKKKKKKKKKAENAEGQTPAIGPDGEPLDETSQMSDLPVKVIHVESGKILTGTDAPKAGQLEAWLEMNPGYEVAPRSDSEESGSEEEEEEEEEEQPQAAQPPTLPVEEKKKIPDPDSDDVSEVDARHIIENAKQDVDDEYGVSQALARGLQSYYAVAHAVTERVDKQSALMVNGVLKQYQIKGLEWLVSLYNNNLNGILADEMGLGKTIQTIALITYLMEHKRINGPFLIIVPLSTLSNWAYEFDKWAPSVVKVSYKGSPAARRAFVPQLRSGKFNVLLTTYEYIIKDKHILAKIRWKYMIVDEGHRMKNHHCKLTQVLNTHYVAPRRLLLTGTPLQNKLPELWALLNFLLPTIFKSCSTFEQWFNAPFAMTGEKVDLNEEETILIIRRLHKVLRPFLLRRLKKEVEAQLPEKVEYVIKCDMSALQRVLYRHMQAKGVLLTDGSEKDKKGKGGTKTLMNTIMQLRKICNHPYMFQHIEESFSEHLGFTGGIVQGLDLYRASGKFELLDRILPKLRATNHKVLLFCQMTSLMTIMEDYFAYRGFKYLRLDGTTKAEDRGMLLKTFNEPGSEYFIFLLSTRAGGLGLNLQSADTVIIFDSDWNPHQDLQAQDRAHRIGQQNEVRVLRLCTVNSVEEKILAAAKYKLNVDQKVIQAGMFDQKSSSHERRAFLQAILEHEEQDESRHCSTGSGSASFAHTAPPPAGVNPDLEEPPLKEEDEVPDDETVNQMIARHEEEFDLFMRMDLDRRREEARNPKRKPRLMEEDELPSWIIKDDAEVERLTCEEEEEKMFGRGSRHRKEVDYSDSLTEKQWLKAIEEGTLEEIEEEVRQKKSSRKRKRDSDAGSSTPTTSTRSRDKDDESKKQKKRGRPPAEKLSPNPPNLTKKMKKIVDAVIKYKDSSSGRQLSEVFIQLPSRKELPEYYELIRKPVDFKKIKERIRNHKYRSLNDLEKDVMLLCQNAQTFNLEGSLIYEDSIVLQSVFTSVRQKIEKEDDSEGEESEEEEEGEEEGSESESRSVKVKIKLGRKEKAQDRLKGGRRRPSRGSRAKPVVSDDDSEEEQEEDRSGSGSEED
T1 sequence (P51531 whole entry): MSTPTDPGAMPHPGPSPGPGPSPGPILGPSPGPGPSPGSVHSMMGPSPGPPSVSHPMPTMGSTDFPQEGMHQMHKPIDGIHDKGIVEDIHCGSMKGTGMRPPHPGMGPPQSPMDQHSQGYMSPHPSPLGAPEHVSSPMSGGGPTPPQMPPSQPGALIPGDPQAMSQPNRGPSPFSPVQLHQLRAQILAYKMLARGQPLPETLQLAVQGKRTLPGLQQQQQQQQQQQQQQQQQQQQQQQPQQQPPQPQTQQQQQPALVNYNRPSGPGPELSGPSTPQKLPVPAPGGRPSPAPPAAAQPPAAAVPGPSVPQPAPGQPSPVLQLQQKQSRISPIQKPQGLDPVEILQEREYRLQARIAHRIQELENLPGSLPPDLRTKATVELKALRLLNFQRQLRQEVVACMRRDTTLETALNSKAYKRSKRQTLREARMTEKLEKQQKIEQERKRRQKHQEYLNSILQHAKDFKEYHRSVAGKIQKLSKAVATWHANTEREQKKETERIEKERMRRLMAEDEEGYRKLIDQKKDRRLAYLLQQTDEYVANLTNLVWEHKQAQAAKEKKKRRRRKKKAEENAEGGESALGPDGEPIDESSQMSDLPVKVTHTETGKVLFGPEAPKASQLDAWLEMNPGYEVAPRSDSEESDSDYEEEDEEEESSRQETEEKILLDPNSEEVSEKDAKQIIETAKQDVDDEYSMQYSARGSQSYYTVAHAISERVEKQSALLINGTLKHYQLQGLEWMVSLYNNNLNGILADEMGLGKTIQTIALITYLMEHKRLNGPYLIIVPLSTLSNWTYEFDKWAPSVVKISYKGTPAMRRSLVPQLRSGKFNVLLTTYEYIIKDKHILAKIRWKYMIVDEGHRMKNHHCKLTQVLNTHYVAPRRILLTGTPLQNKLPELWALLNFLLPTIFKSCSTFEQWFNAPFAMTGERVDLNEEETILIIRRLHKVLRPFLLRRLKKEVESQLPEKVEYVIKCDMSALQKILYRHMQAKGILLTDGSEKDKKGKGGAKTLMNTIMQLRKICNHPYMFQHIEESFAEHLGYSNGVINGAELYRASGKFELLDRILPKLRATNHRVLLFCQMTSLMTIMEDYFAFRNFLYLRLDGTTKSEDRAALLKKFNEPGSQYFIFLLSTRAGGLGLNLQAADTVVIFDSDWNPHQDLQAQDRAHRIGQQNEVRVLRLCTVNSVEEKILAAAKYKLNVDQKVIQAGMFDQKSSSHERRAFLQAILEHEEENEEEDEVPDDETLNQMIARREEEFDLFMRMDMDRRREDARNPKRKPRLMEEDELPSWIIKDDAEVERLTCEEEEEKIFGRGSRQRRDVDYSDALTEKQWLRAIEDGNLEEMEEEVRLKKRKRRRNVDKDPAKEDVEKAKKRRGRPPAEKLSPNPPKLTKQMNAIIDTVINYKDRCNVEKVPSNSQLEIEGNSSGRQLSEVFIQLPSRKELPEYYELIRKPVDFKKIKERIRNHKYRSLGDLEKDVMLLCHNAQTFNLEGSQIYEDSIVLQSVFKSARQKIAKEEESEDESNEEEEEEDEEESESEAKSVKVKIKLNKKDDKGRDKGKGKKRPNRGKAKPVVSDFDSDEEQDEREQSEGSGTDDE

Row | Structure (SMILES) | Median HiBiT activity 1 μM [1] | Median HiBiT activity 10 μM [1] | DC50 [2] | DC50 [3] | BRM IF Degradation Sinf (%) [3] | Dmax [2]
1 | Nc1nnc(-c2ccccc2O)cc1N1CC2CCC(C1)N2c1ccnc(C#CC2CCCNC2)c1 (stereo not shown) [Compound 8, 2-(6-amino-5-(8-(2-(piperidin-3-ylethynyl)pyridin-4-yl)-3,8-diazabicyclo[3.2.1]octan-3-yl)pyridazin-3-yl)phenol] | −51.6794% | −23.8415% | > 100 nM | 10 to 100 nM | E (E indicates −30%-−70%) | 
2 | Nc1nnc(-c2ccccc2O)cc1N1CC2CCC(C1)N2c1ccnc(C#CCN2CCOCC2)c1 [Compound 9, 2-(6-amino-5-(8-(2-(3-morpholinoprop-1-yn-1-yl)pyridin-4-yl)-3,8-diazabicyclo[3.2.1]octan-3-yl)pyridazin-3-yl)phenol] | −50.6553% | −33.5251% | < 10 nM | 10 to 100 nM | E (E indicates −30%-−70%) | 0 to 30%
3 | Nc1nnc(-c2ccccc2O)cc1N1CC2CCC(C1)N2c1ccnc(C#CCN2CCNCC2=O)c1 [Compound 10, 1-(3-(4-(3-(3-amino-6-(2-hydroxyphenyl)pyridazin-4-yl)-3,8-diazabicyclo[3.2.1]octan-8-yl)pyridin-2-yl)prop-2-yn-1-yl)piperazin-2-one] | −50.554% | −56.7556% | > 100 nM | 10 to 100 nM | E (E indicates −30%-−70%) | 
4 | NCCCCCCC#Cc1cc(N2C3CCC2CN(c2cc(-c4ccccc4O)nnc2N)C3)ccn1 [Compound 11, 2-(6-amino-5-(8-(2-(8-aminooct-1-yn-1-yl)pyridin-4-yl)-3,8-diazabicyclo[3.2.1]octan-3-yl)pyridazin-3-yl)phenol] | −46.2503% | −53.1423% | 10 to 100 nM | 10 to 100 nM | F (F indicates −71%-−120%) | 30 to 70%
5 | Nc1nnc(-c2ccccc2O)cc1N1CC2CCC(C1)N2c1ccnc(C#CCOC2CCCNC2)c1 (stereo not shown) [Compound 12, 2-(6-amino-5-(8-(2-(3-(piperidin-3-yloxy)prop-1-yn-1-yl)pyridin-4-yl)-3,8-diazabicyclo[3.2.1]octan-3-yl)pyridazin-3-yl)phenol] | −45.7932% | −34.0604% | 10 to 100 nM | 10 to 100 nM | E (E indicates −30%-−70%) | 0 to 30%
6 | Nc1nnc(-c2ccccc2O)cc1N1CC2CCC(C1)N2c1ccnc(C#CCC2CCCCN2)c1 (stereo not shown) [Compound 13, 2-(6-amino-5-(8-(2-(3-(piperidin-2-yl)prop-1-yn-1-yl)pyridin-4-yl)-3,8-diazabicyclo[3.2.1]octan-3-yl)pyridazin-3-yl)phenol] | −44.9864% | −32.1865% | 10 to 100 nM | 10 to 100 nM | E (E indicates −30%-−70%) | 0 to 30%
7 | Nc1nnc(-c2ccccc2O)cc1N1CC2CCC(C1)N2c1ccnc(C#CC2CCCN2)c1 (stereo not shown) [Compound 14, 2-(6-amino-5-(8-(2-(pyrrolidin-2-ylethynyl)pyridin-4-yl)-3,8-diazabicyclo[3.2.1]octan-3-yl)pyridazin-3-yl)phenol] | −42.9269% | −50.5501% | 10 to 100 nM | < 10 nM | E (E indicates −30%-−70%) | 0 to 30%
8 | Nc1nnc(-c2ccccc2O)cc1N1CC2CCC(C1)N2c1ccnc(C#CCN2CCC(N)C2)c1 (stereo not shown) [Compound 15, 2-(6-amino-5-(8-(2-(3-(3-aminopyrrolidin-1-yl)prop-1-yn-1-yl)pyridin-4-yl)-3,8-diazabicyclo[3.2.1]octan-3-yl)pyridazin-3-yl)phenol] | −41.5313% | −55.0083% | > 100 nM | > 100 nM | E (E indicates −30%-−70%) | 0 to 30%
9 | Nc1nnc(-c2ccccc2O)cc1N1CC2CCC(C1)N2c1ccnc(C#CCC2CCCN2)c1 (stereo not shown) [Compound 16, 2-(6-amino-5-(8-(2-(3-(pyrrolidin-2-yl)prop-1-yn-1-yl)pyridin-4-yl)-3,8-diazabicyclo[3.2.1]octan-3-yl)pyridazin-3-yl)phenol] | −38.7074% | −29.4258% | 10 to 100 nM | 10 to 100 nM | E (E indicates −30%-−70%) | 0 to 30%
10 | Nc1nnc(-c2ccccc2O)cc1N1CC2CCC(C1)N2c1ccnc(C#CC2CCN2)c1 (stereo not shown) [Compound 17, 2-(6-amino-5-(8-(2-(azetidin-2-ylethynyl)pyridin-4-yl)-3,8-diazabicyclo[3.2.1]octan-3-yl)pyridazin-3-yl)phenol] | −37.0864% | −51.9890% | 10 to 100 nM | 10 to 100 nM | E (E indicates −30%-−70%) | 0 to 30%
11 | Nc1nnc(-c2ccccc2O)cc1N1CC2CCC(C1)N2c1ccnc(C#CCN2CCS(=O)(=O)CC2)c1 [Compound 18, 4-(3-(4-(3-(3-amino-6-(2-hydroxyphenyl)pyridazin-4-yl)-3,8-diazabicyclo[3.2.1]octan-8-yl)pyridin-2-yl)prop-2-yn-1-yl)thiomorpholine1,1-dioxide] | −37.0807% | −56.4043% | > 100 nM | > 100 nM | E (E indicates −30%-−70%) | 
12 | Nc1nnc(-c2ccccc2O)cc1N1CC2CCC(C1)N2c1ccnc(C#CC2CCNCC2)c1 [Compound 19, 2-(6-amino-5-(8-(2-(piperidin-4-ylethynyl)pyridin-4-yl)-3,8-diazabicyclo[3.2.1]octan-3-yl)pyridazin-3-yl)phenol] | −36.9943% | −56.3342% | > 100 nM | 10 to 100 nM | E (E indicates −30%-−70%) | 30 to 70%
13 | NCCCCCCc1cc(N2C3CCC2CN(c2cc(-c4ccccc4O)nnc2N)C3)ccn1 [Compound 20, 2-(6-amino-5-(8-(2-(6-aminohexyl)pyridin-4-yl)-3,8-diazabicyclo[3.2.1]octan-3-yl)pyridazin-3-yl)phenol] | −33.3403% | −8.91% | 10 to 100 nM | 10 to 100 nM | F (F indicates −71%-−120%) | 71 to 120%
14 | Cn1cc(C#Cc2cc(N3C4CCC3CN(c3cc(-c5ccccc5O)nnc3N)C4)ccn2)cn1 [Compound 21, 2-(6-amino-5-(8-(2-((1-methyl-1H-pyrazol-4-yl)ethynyl)pyridin-4-yl)-3,8-diazabicyclo[3.2.1]octan-3-yl)pyridazin-3-yl)phenol] | −32.7297% | −42.1813% | 10 to 100 nM | > 100 nM |  | 0 to 30%
15 | Nc1nnc(-c2ccccc2O)cc1N1CC2CCC(C1)N2c1ccnc(C#CC2CCOCC2)c1 [Compound 22, 2-(6-amino-5-(8-(2-((tetrahydro-2H-pyran-4-yl)ethynyl)pyridin-4-yl)-3,8-diazabicyclo[3.2.1]octan-3-yl)pyridazin-3-yl)phenol] | −30.6701% | −33.6373% | > 100 nM | > 100 nM |  | 0 to 30%
16 | C[C@@H](N)C#Cc1cc(N2C3CCC2CN(c2cc(-c4ccccc4O)nnc2N)C3)ccn1 [Compound 23, 2-(6-amino-5-(8-(2-((R)-3-aminobut-1-yn-1-yl)pyridin-4-yl)-3,8-diazabicyclo[3.2.1]octan-3-yl)pyridazin-3-yl)phenol] | −29.3818% | −58.9213% | 10 to 100 nM | < 10 nM | E (E indicates −30%-−70%) | 30 to 70%
